Experimental findings from US8188144B2, “In vitro preservation of living animal cells and compounds suitable for use in the preservation of living animal cells” (Antoxis Limited, priority 2007, dated 2012) are described below.

The test system of this series is mouse embryonic stem cells. The experiment in a line: MTT cell viability assay of tert-butyl hydroperoxide oxidative stress-induced cytotoxicity in mouse embryonic stem cells. Format: cell-based. As to conditions: for viability at 0.1 µM / viability at 0.5 µM / viability at 1 µM: Mus musculus, Embryonic stem cell, read-out: Ave. Cell Viability (%). Here is the method: Oxidative stress and related free radical damage can be induced in cells, including stem cells, by exposing the cells to tert-butyl hydroperoxide in the incubation medium. Decomposition of the peroxide over a period of time leads to a steady generation of reactive oxygen species. This in turn triggers a cascade of free radical-mediated events that eventually leads to irreversible damage and ultimately cell death as the natural antioxidant defences are overwhelmed.
The extent of cytotoxicity induced by peroxide exposure can be quantified using a number of well-documented assays, including the MTT protocol. This is a colorometric assay that measures the reduction of MTT to formazan, a process that can only occur when cells are viable. Thus, by comparing the amount of formazan produced in control cells, against cells treated with a cytotoxic agent, such as tert-butyl hydroperoxide, the reduction in cell viability induced by the agent can be measured.
The assay can be further extended to determine the effectiveness of compounds to provide protection against cytotoxic agents. In the case of the novel antioxidants, the subject of this patent, this can be achieved by pre-incubation of the cells with the antioxidant agent prior to induction of oxidative stress by tert-butyl hydroperoxide. Thus a comparison of the amount of formazan produced by control cells against cells with the cytotoxic peroxide present, plus or minus pre-incubation with the novel antioxidant, can determine the extent by which the compound can retain cell viability.
A 96-well plate was seeded with approximately 20,000 mouse embryonic stem cells per well and left to grow at 37° C. (5% CO2) overnight. Antioxidants, denoted as Exp.1, Exp.2 and Exp.3, were dissolved in DMSO and added to the wells in triplicate 30 min before induction of oxidative stress with tert-butyl hydroperoxide. The resultant concentrations of the tested antioxidants in the wells were 0.1, 0.5 and 1 μM. Controls were also initiated using cell medium (DMEM^+)/DMSO. After the 30 min pre-incubation period, tert-butyl peroxide was added to the wells to provide a final concentration of 400 μM. The plated cells were returned to the incubator (37° C.) for 90 min. After this period, 20 μL of the MTT reagent solution was added to all of the wells. The plate was then further incubated for a further 3 hours. The supernatant was removed from the wells and 200 μl DMSO added to all wells to solubilise reduced MTT (formazan). The plate was protected from light and shaken for 10 min. The supernatant was removed from the wells and aliquoted into a new 96-well plate for the colorometric measurements. Absorbance was determined at 540 nm.
The average corrected absorbance. (0.737) for the DMEM^+ control (which contained no antioxidant compounds or tert-butyl hydroperoxide) represented the 100% viability benchmark. Comparison of the corrected absorbances in the various well treatment regimes relative to that of the DMEM^+ control enabled the resultant effects on cell viability to be calculated. tBHP=tert-butyl hydroperoxide.
In general terms: Formazan colour is commonly taken as a measure of viable cells.

As a reminder, the viability is a per cent measure of how many cells are alive, often set against a control. For `CCCCCCCCc1cc(=O)c(O)c(-c2cc(O)c(O)c(O)c2)o1` [Exp.3], the viability at 0.1 µM turned out to be 34.4%, the viability at 0.5 µM is 55.5% and the viability at 1 µM was found to be 70.4%.

Take `CC(C)(C)OO` [tBHP, tert-butyl hydroperoxide, reference compound]: the “Ave. Cell Viability (%)” value runs as follows: (400 μM tBHP alone, no antioxidant, 90 min, relative to DMEM+ control = 100%) 37.0%; (400 μM tBHP alone, no antioxidant, 90 min, relative to DMEM+ control = 100%, listed as tert-butyl hydroperoxide) 37%.

As for `CCCCCCCCCCc1ccc2c(=O)c(O)c(-c3cc(O)c(O)c(O)c3)oc2c1` [Exp.1], the viability at 0.1 µM is 56.9%, the viability at 0.5 µM is 86.5% and the viability at 1 µM was determined as 84.8%. Moreover, the “Ave. Cell Viability (%)” value (mouse, 120 min, 1 μM) is on record as 107.4%.

Take `CCCCCCCCCCCCc1cc(=O)c(O)c(-c2cc(O)c(O)c(O)c2)o1` [Exp.2]: the viability at 0.1 µM turned out to be 60.5%, the viability at 0.5 µM was found to be 94.8% and the viability at 1 µM was 96.9%. In addition, the “Ave. Cell Viability (%)” value (mouse, 120 min, 1 μM) was 104.1%.
